Data taken from patent publication US9695163B2, “Thiazole orexin receptor antagonists” (MERCK SHARP & DOHME CORP., priority 2013, dated 2017).

Assays:
[1] = biological target: human orexin-2 receptor (hOX2R) (Homo sapiens (Human), UniProt O43614); assay: FLIPR Ca2+ Flux Assay, CHO cells expressing human orexin-2 receptor; assay type: cell-based; conditions: agonist Ala-6,12 human orexin-A 70 pM
Protocol: Briefly, for intracellular calcium measurements, Chinese hamster ovary (CHO) cells expressing the orexin-1 receptor (e.g., rat or human) or the orexin-2 receptor (e.g., rat or human), are grown in Iscove's modified DMEM containing 2 mM L-glutamine, […], 1% hypoxanthine-thymidine supplement, 100 U/ml penicillin, 100 μg/ml streptomycin and 10% heat-inactivated fetal calf serum (FCS). The cells are seeded at approximately 20,000 cells per well into 384-well clear bottom sterile plates coated with poly-D-lysine. The seeded plates are incubated overnight at 37° C. and 5% CO2. Human ala-6,12 orexin-A can be used as the agonist and prepared as a 1 mM stock solution in 1% bovine serum albumin (BSA) and diluted in assay buffer (HBSS containing 20 mM HEPES, 0.1% BSA and 2.5 mM probenecid, pH7.4) for use in the assay at a final concentration of 70 pM. Test compounds are prepared as 10 mM stock solution in DMSO, then diluted in 384-well plates, first in DMSO, then in assay buffer. On the day of the assay, cells are washed 3 times with 100 μl assay buffer and then incubated for 60 minutes (37° C., 5% CO2) in 60 μl assay buffer containing 1 μM Fluo-4 AM ester, 0.02% pluronic acid, and 1% BSA. The dye loading solution is then aspirated and cells are washed 3 times with 100 μl assay buffer. 30 μl of that same buffer is left in each well. Within the Fluorescent Imaging Plate Reader (FLIPR, Molecular Devices), test compounds are added to the plate in a volume of 25 μl, incubated for 5 minutes, and then 25 μl of agonist is added. Fluorescence is measured for each well at 1 second intervals for 5 minutes, and the height of each fluorescence peak is compared to the height of the fluorescence peak induced by 70 pM of agonist ala-6,12 orexin-A with buffer in place of test compound. IC50 value for the test compound is determined to be the concentration of compound needed to inhibit 50% of the agonist response. Alternatively, compound potency can be assessed using a radioligand binding assay (described in Bergman et. al., Bioorg. Med. Chem. Lett. 2008, 18:1425-1430) in which the inhibition constant (Ki) is determined in membranes prepared from CHO cells expressing either the OX1 or OX2 receptor. The intrinsic orexin receptor antagonist activity of a compound of the present invention may be determined by these assays. […]

[2] = biological target: human orexin-1 receptor (hOX1R) (Homo sapiens (Human), UniProt O43613); assay: FLIPR Ca2+ Flux Assay, CHO cells expressing human orexin-1 receptor; assay type: cell-based; conditions: agonist Ala-6,12 human orexin-A 70 pM
From the text: The utility of the compounds in accordance with the present invention as orexin receptor OX1R and/or OX2R antagonists may be readily determined without undue experimentation by methodology well known in the art, including the “FLIPR Ca^2+ Flux Assay” (Okumura et al., Biochem. Biophys. Res. Comm. 2001, 280:976-981). Briefly, for intracellular calcium measurements, Chinese hamster ovary (CHO) cells expressing the orexin-1 receptor (e.g., rat or human) or the orexin-2 receptor (e.g., rat or human), are grown in Iscove's modified DMEM containing 2 mM L-glutamine, […], 1% hypoxanthine-thymidine supplement, 100 U/ml penicillin, 100 μg/ml streptomycin and 10% heat-inactivated fetal calf serum (FCS). The cells are seeded at approximately 20,000 cells per well into 384-well clear bottom sterile plates coated with poly-D-lysine. The seeded plates are incubated overnight at 37° C. and 5% CO2. Human ala-6,12 orexin-A can be used as the agonist and prepared as a 1 mM stock solution in 1% bovine serum albumin (BSA) and diluted in assay buffer (HBSS containing 20 mM HEPES, 0.1% BSA and 2.5 mM probenecid, pH7.4) for use in the assay at a final concentration of 70 pM. Test compounds are prepared as 10 mM stock solution in DMSO, then diluted in 384-well plates, first in DMSO, then in assay buffer. On the day of the assay, cells are washed 3 times with 100 μl assay buffer and then incubated for 60 minutes (37° C., 5% CO2) in 60 μl assay buffer containing 1 μM Fluo-4 AM ester, 0.02% pluronic acid, and 1% BSA. The dye loading solution is then aspirated and cells are washed 3 times with 100 μl assay buffer. 30 μl of that same buffer is left in each well. Within the Fluorescent Imaging Plate Reader (FLIPR, Molecular Devices), test compounds are added to the plate in a volume of 25 μl, incubated for 5 minutes, and then 25 μl of agonist is added. Fluorescence is measured for each well at 1 second intervals for 5 minutes, and the height of each fluorescence peak is compared to the height of the fluorescence peak induced by 70 pM of agonist ala-6,12 orexin-A with buffer in place of test compound. IC50 value for the test compound is determined to be the concentration of compound needed to inhibit 50% of the agonist response. Alternatively, compound potency can be assessed using a radioligand binding assay (described in Bergman et. al., Bioorg. Med. Chem. Lett. 2008, 18:1425-1430) in which the inhibition constant (Ki) is determined in membranes prepared from CHO cells expressing either the OX1 or OX2 receptor. The intrinsic orexin receptor antagonist activity of a compound of the present invention may be determined by these assays.

Chain of human orexin-1 receptor (hOX1R) (O43613 whole entry): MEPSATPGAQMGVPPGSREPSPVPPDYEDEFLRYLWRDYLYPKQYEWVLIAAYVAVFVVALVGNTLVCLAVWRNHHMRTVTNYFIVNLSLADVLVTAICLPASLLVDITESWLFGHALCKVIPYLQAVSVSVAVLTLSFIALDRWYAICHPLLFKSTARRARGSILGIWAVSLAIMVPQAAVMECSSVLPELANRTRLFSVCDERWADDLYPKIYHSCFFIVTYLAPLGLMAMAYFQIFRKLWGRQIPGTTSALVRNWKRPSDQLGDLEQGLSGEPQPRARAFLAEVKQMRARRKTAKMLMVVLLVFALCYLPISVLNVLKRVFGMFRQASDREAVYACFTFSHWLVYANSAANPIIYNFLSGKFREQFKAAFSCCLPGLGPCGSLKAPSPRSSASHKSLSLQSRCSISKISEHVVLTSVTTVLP
Chain of human orexin-2 receptor (hOX2R) (O43614 whole entry): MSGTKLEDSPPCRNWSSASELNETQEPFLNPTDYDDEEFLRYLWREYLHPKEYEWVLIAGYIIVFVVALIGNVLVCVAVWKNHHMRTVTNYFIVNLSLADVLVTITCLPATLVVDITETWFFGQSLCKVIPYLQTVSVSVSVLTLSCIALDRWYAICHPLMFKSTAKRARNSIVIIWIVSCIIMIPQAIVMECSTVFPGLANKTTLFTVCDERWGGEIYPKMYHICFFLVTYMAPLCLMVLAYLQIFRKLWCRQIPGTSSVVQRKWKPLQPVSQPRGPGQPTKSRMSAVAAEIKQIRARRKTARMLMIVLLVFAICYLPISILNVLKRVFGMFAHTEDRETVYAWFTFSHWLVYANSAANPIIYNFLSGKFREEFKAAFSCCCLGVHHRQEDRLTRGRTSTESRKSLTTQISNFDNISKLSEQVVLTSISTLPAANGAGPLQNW

| Compound | IC50 [1] | IC50 [2] |
| --- | --- | --- |
| Cc1sc([C@@H]2CC[C@@H](C)N(C(=O)c3ccccc3-c3ncccn3)C2)nc1C(C)(C)O [Example 23, ((2R,5R)-5-(4-(2-Hydroxypropan-2-yl)-5-methylthiazol-2-yl)-2-methylpiperidin-1-yl)(2-(pyrimidin-2-yl)phenyl)methanone] | 27 nM | 600 nM |
| C[C@@H]1CC[C@@H](c2nc([C@H](O)C(F)(F)F)cs2)CN1C(=O)c1ccccc1-n1nccn1 [Example 6, (2-(2H-1,2,3-triazol-2-yl)phenyl)((2R,5R)-2-methyl-5-(4-((S)-2,2,2-trifluoro-1-hydroxyethyl)thiazol-2-yl)piperidin-1-yl)methanone] | 165 nM | 10000 nM |
| C[C@@H]1CC[C@@H](c2csc(C(C)(C)O)n2)CN1C(=O)c1ccsc1-n1nccn1 [Example 37, (2-(2H-1,2,3-Triazol-2-yl)thiophen-3-yl)((2R,5R)-5-(2-(2-hydroxypropan-2-yl)thiazol-4-yl)-2-methylpiperidin-1-yl)methanone] | 16 nM | 7200 nM |
| C[C@@H]1CC[C@@H](c2csc(C(C)(C)O)n2)CN1C(=O)c1cscc1-n1nccn1 [Example 35, (4-(2H-1,2,3-triazol-2-yl)thiophen-3-yl)((2R,5R)-5-(2-(2-hydroxypropan-2-yl)thiazol-4-yl)-2-methylpiperidin-1-yl)methanone] | 14 nM | > 10000 nM |
| C[C@@H]1CC[C@@H](c2csc(C(C)(C)O)n2)CN1C(=O)c1ccccc1CS(C)(=O)=O [Example 34, ((2R,5R)-5-(2-(2-hydroxypropan-2-yl)thiazol-4-yl)-2-methylpiperidin-1-yl)(2-((methylsulfonyl)methyl)phenyl)methanone] | 40 nM | > 10000 nM |
| C[C@@H]1CC[C@@H](c2nc(C(C)(C)O)cs2)CN1C(=O)c1cscc1-c1ncccn1 [Example 16, ((2R,5R)-5-(4-(2-hydroxypropan-2-yl)thiazol-2-yl)-2-methylpiperidin-1-yl)(4-(pyrimidin-2-yl)thiophen-3-yl)methanone] | 25 nM | 1000 nM |
| C[C@@H]1CC[C@@H](c2csc(C(C)(C)O)n2)CN1C(=O)c1ccccc1-c1ncccn1 [Example 33, ((2R,5R)-5-(2-(2-hydroxypropan-2-yl)thiazol-4-yl)-2-methylpiperidin-1-yl)(2-(pyrimidin-2-yl)phenyl)methanone] | 102 nM | > 10000 nM |
| C[C@@H]1CC[C@@H](c2cnc(C(C)(C)O)s2)CN1C(=O)c1ccccc1-n1nccn1 [Example 4, (2-(2H-1,2,3-triazol-2-yl)phenyl)((2R,5R)-5-(2-(2-hydroxypropan-2-yl)thiazol-5-yl)-2-methylpiperidin-1-yl)methanone] | 50 nM | > 10000 nM |
| C[C@@H]1CC[C@@H](c2nc([C@@H](O)C(F)F)cs2)CN1C(=O)c1ccccc1-n1nccn1 [Example 8] | 133 nM | > 10000 nM |
| C[C@@H]1CC[C@@H](c2nc(C(C)(C)O)cs2)CN1C(=O)c1ccccc1-c1ncccn1 [Example 17, ((2R,5R)-5-(4-(2-Hydroxypropan-2-yl)thiazol-2-yl)-2-methylpiperidin-1-yl)(2-(pyrimidin-2-yl)phenyl)methanone] | 29 nM | 5470 nM |
| C[C@@H]1CC[C@@H](c2nc([C@H](O)C(F)F)cs2)CN1C(=O)c1ccccc1-n1nccn1 [Example 9] | 9.4 nM | 520 nM |
| Cc1sc([C@@H]2CC[C@@H](C)N(C(=O)c3ccccc3CS(C)(=O)=O)C2)nc1C(C)(C)O [Example 26, ((2R,5R)-5-(4-(2-Hydroxypropan-2-yl)-5-methylthiazol-2-yl)-2-methylpiperidin-1-yl)(2-((methylsulfonyl)methyl)phenyl)methanone] | 32 nM | > 10000 nM |
| C[C@@H]1CC[C@@H](c2csc(C(C)(C)O)n2)CN1C(=O)c1cscc1-c1ncccn1 [Example 32, ((2R,5R)-5-(2-(2-hydroxypropan-2-yl)thiazol-4-yl)-2-methylpiperidin-1-yl)(4-(pyrimidin-2-yl)thiophen-3-yl)methanone] | 130 nM | > 10000 nM |
| Cc1sc([C@@H]2CC[C@@H](C)N(C(=O)c3ccc(F)cc3-n3nccn3)C2)nc1C(C)(C)O [Example 22, (4-fluoro-2-(2H-1,2,3-triazol-2-yl)phenyl)((2R,5R)-5-(4-(2-hydroxypropan-2-yl)-5-methylthiazol-2-yl)-2-methylpiperidin-1-yl)methanone] | 20 nM | 930 nM |
| C[C@@H]1CC[C@@H](c2nc(C(C)(C)O)cs2)CN1C(=O)c1ccccc1C1(C#N)CC1 [Example 11, 1-(2-((2R,5R)-5-(4-(2-Hydroxypropan-2-yl)thiazol-2-yl)-2-methylpiperidine-1-carbonyl)phenyl)cyclopropanecarbonitrile] | 15 nM | 950 nM |
| CCOC(=O)c1cnc([C@@H]2CC[C@@H](C)N(C(=O)c3ccccc3-n3nccn3)C2)s1 [Example 1, Ethyl 2-((3R,6R)-1-(2-(2H-1,2,3-triazol-2-yl)benzoyl)-6-methylpiperidin-3-yl)thiazole-5-carboxylate] | 1510 nM | > 10000 nM |
| C[C@@H]1CC[C@@H](c2nc(C(C)(C)O)cs2)CN1C(=O)c1ccccc1-n1ncnn1 [Example 14, (2-(2H-Tetrazol-2-yl)phenyl)((2R,5R)-5-(4-(2-hydroxypropan-2-yl)thiazol-2-yl)-2-methylpiperidin-1-yl)methanone] | 21 nM | > 10000 nM |
| C[C@@H]1CC[C@@H](c2csc(C(C)(C)O)n2)CN1C(=O)c1ccccc1C1(C#N)CC1 [Example 30, 1-(2-((2R,5R)-5-(2-(2-hydroxypropan-2-yl)thiazol-4-yl)-2-methylpiperidine-1-carbonyl)phenyl)cyclopropanecarbonitrile] | 13 nM | 1200 nM |
| C[C@@H]1CC[C@@H](c2nc(C(C)(C)O)cs2)CN1C(=O)c1ccccc1-n1nccn1 [Example 5] | 17 nM | 2250 nM |
